{"source": "patent US11857522B2", "about": "“Compositions containing tucaresol or its analogs” (BeyondSpring Pharmaceuticals, Inc., priority 2016, dated 2024)", "tested_on": "MC-38 tumor cells", "experiment": "MC-38 tumor model, comparison of tucaresol and CTLA-4 antibody (Example 9)", "format": "in vivo, mice", "conditions": "FIG. 4", "description": "The treatment with the combination of tucaresol, a PD-1 antibody, and CTLA-4 antibody was compared with the combination of PD-1 antibody and CTLA-4 antibody for their tumor inhibition effects. The tests were performed using seven to ten-week old immune competent mice that were injected subcutaneously with MC-38 tumor cells.\nThree testing groups were prepared. Group A was administered with PD-1 antibody (3 mg/kg)/CTLA-4 antibody (3 mg/kg) combined treatment; Group B was administered with a tucaresol (10 mg/kg)/PD-1 antibody (3 mg/kg) CTLA-4 antibody (3 mg/kg) combined treatment; and Group C was administered with a PD-1 antibody (3 mg/kg)/CTLA-4 antibody (10 mg/kg) combined treatment. […]\nEach treatment started at tumor size between 40-150 mm^3 and continued until Day 24. To determine the efficacy of each treatment, the following data were collected: mortality rate; the body weight of the mice assessed twice weekly both prior to treatments; the rate of tumor growth as determined by the tumor size measurement (twice every week); the tumor growth index; overall survival rate; the time required to double tumor size and the tumor weight at necropsy.", "data": [{"smiles": "O=Cc1c(O)cccc1OCc1ccc(C(=O)O)cc1", "note": "[tucaresol, 4-[(2-formyl-3-hydroxy-phenoxy)methyl]benzoic acid]", "values": [{"measurement": "anti-tumor effect of the combination (MC 38 tumor growth)", "setting": "tucaresol 10 mg/kg added to PD-1 antibody (3 mg/kg)/CTLA-4 antibody (3 mg/kg), compared with raising CTLA-4 antibody from 3 mg/kg to 10 mg/kg, until Day 24", "result": "increased the anti-tumor effect of the combination to a greater extent than increasing the dose of the CTLA-4 antibody"}, {"measurement": "inhibiting tumor growth", "setting": "used together with immune checkpoint inhibitors such as PD-1 antibody, MC-38 tumors in mice", "result": "more effective in inhibiting tumor growth than CTLA-4 antibody"}]}]}
